From PubChem BioAssay (NCI)
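Each compound was tested at five concentrations against cells in 96-well plates for 48 hours. Here, GI50 denotes the concentration required for 50% inhibition of growth. At the TGI there is no net growth.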

Tests used:
Assay in all cases: NCI-60 cell line screen, 48 h
786-0 renal = tested on: 786-0 renal
A498 renal = tested on: A498 renal
A549 NSCLC = tested on: A549 NSCLC
ACHN renal = tested on: ACHN renal
BT-549 breast = tested on: BT-549 breast
CAKI-1 renal = tested on: CAKI-1 renal
CCRF-CEM leukemia = tested on: CCRF-CEM leukemia
COLO 205 colon = tested on: COLO 205 colon
DU-145 prostate = tested on: DU-145 prostate
EKVX NSCLC = tested on: EKVX NSCLC
HCC-2998 colon = tested on: HCC-2998 colon
HCT-116 colon = tested on: HCT-116 colon
HCT-15 colon = tested on: HCT-15 colon
HL-60(TB) leukemia = tested on: HL-60(TB) leukemia
HOP-62 NSCLC = tested on: HOP-62 NSCLC
HOP-92 NSCLC = tested on: HOP-92 NSCLC
HS 578T breast = tested on: HS 578T breast
HT29 colon = tested on: HT29 colon
IGROV1 ovarian = tested on: IGROV1 ovarian
K-562 leukemia = tested on: K-562 leukemia
KM12 colon = tested on: KM12 colon
M14 melanoma = tested on: M14 melanoma
MALME-3M melanoma = tested on: MALME-3M melanoma
MCF7 breast = tested on: MCF7 breast
MDA-MB-231 breast = tested on: MDA-MB-231 breast
MDA-MB-435 = tested on: MDA-MB-435
MOLT-4 leukemia = tested on: MOLT-4 leukemia
NCI-H226 lung = tested on: NCI-H226 lung

CNC1CCc2c(sc(NC(=O)c3ccc(C(C)(C)C)cc3)c2C(N)=O)C1 (stereo unspecified)
GI50 (786-0 renal): 1610 nM
TGI (786-0 renal): 3100 nM
GI50 (A498 renal): 1480 nM
TGI (A498 renal): 4280 nM
GI50 (A549 NSCLC): 2090 nM
TGI (A549 NSCLC): 4460 nM
GI50 (ACHN renal): 2010 nM
TGI (ACHN renal): 4230 nM
GI50 (BT-549 breast): 1850 nM
TGI (BT-549 breast): 4670 nM
GI50 (CAKI-1 renal): 1900 nM
TGI (CAKI-1 renal): 3810 nM
GI50 (CCRF-CEM leukemia): 1520 nM
TGI (CCRF-CEM leukemia): 4850 nM
GI50 (COLO 205 colon): 1730 nM
TGI (COLO 205 colon): 3540 nM
GI50 (DU-145 prostate): 1950 nM
TGI (DU-145 prostate): 4030 nM
GI50 (EKVX NSCLC): 1720 nM
TGI (EKVX NSCLC): 4260 nM
GI50 (HCC-2998 colon): 1760 nM
TGI (HCC-2998 colon): 3340 nM
GI50 (HCT-116 colon): 1340 nM
TGI (HCT-116 colon): 2660 nM
GI50 (HCT-15 colon): 1520 nM
TGI (HCT-15 colon): 3150 nM
GI50 (HL-60(TB) leukemia): 634 nM
TGI (HL-60(TB) leukemia): 2360 nM
GI50 (HOP-62 NSCLC): 1550 nM
TGI (HOP-62 NSCLC): 3600 nM
GI50 (HOP-92 NSCLC): 944 nM
TGI (HOP-92 NSCLC): 5040 nM
GI50 (HS 578T breast): 2150 nM
TGI (HS 578T breast): 5430 nM
GI50 (HT29 colon): 1290 nM
TGI (HT29 colon): 3710 nM
GI50 (IGROV1 ovarian): 1590 nM
TGI (IGROV1 ovarian): 3580 nM
GI50 (K-562 leukemia): 1320 nM
TGI (K-562 leukemia): 3340 nM
GI50 (KM12 colon): 1890 nM
TGI (KM12 colon): 3610 nM
GI50 (M14 melanoma): 1750 nM
TGI (M14 melanoma): 3600 nM
GI50 (MALME-3M melanoma): 1630 nM
TGI (MALME-3M melanoma): 3260 nM
GI50 (MCF7 breast): 1650 nM
TGI (MCF7 breast): 3530 nM
GI50 (MDA-MB-231 breast): 1610 nM
TGI (MDA-MB-231 breast): 2970 nM
GI50 (MDA-MB-435): 1750 nM
TGI (MDA-MB-435): 3400 nM
GI50 (MOLT-4 leukemia): 1740 nM
TGI (MOLT-4 leukemia): 4090 nM
GI50 (NCI-H226 lung): 1870 nM
TGI (NCI-H226 lung): 4020 nM
